Measured values taken from US20050222173A1, “Triazolopyrimidines” (priority 2002, published 2005).

Tested on: not listed separately
Test: physchem
Conditions: not given
In the case of `CC(C)Nc1c(-c2ccccc2Cl)c(Cl)nc2nc(Cl)nn12` [Example 1, N-[2,5-dichloro-6-(2-chlorophenyl)[1,2,4]triazolo[1,5-a]pyrimidin-7-yl]-N-isopropylamine], the chromatographic logP was 3.43. `Clc1nc2nc(Cl)c(-c3ccccc3Cl)c(Cl)n2n1` [Example 177, 2,5,7-trichloro-6-(2-chlorophenyl)[1,2,4]triazolo[1,5-a]pyrimidine] showed a chromatographic logP of 3.37. `Clc1ccccc1-c1c(Cl)nc2nc(Br)nn2c1Cl` [Example 178, 2-Bromo-5,7-dichloro-6-(2-chlorophenyl)[1,2,4]triazolo[1,5-a]pyrimidine] showed a chromatographic logP of 3.39. In the case of `Fc1cc(F)c(-c2c(Cl)nc3nc(Cl)nn3c2Cl)c(F)c1` [Example 179, 2,5,7-Trichloro-6-(2,4,6-trifluorophenyl)[1,2,4]triazolo[1,5-a]pyrimidine], the chromatographic logP was 3.28. Molecule `Fc1cc(F)c(-c2c(Cl)nc3nc(Br)nn3c2Cl)c(F)c1` [Example 180, 2-Bromo-5,7-dichloro-6-(2,4,6-trifluorophenyl)[1,2,4]triazolo[1,5-a]pyrimidine] has a chromatographic logP of 3.27.

Tested on: Venturia inaequalis
Test: Venturia test (apple)/protective
Format: in vivo
Conditions: Venturia inaequalis, 240 h, protective, application rate 100 g/ha, evaluation 10 days after inoculation, read-out: Efficacy in %
Procedure: Venturia Test (Apple)/Protective [table] To produce a suitable preparation of active compound, 1 part by weight of active compound is mixed with the stated amounts of solvent and emulsifier, and the concentrate is diluted with water to the desired concentration. To test for protective activity, young plants are sprayed with the preparation of active compound at the stated application rate. […] The plants are then placed in a greenhouse at about 21° C. and a relative atmospheric humidity of about […].
`Fc1cccc(Cl)c1-c1c(Cl)nc2nc(Cl)nn2c1N1CCCC1` [drawing 61] gave a pest or weed control at 100 g/ha of 85%. `C=CCN(CC)c1c(-c2c(F)cccc2Cl)c(Cl)nc2nc(Cl)nn12` [drawing 62] gave a pest or weed control at 100 g/ha of 96%. `CC(C)CNc1c(-c2c(F)cccc2Cl)c(Cl)nc2nc(Cl)nn12` [drawing 63] showed a pest or weed control at 100 g/ha of 91%. Molecule `Fc1cccc(Cl)c1-c1c(Cl)nc2nc(Cl)nn2c1NCC1CC1` [drawing 64] has a pest or weed control at 100 g/ha of 99%. With `COCCN(C)c1c(-c2c(F)cccc2Cl)c(Cl)nc2nc(Cl)nn12` [drawing 65] the pest or weed control at 100 g/ha was 96%. For `COc1nc2nc(Cl)c(-c3c(F)cc(F)cc3OC)c(NC(C)C(F)(F)F)n2n1` (centres unmarked) [drawing 67], the pest or weed control at 100 g/ha was 99%.

Same assay, conditions: protective, application rate 100 g/ha, evaluation 10 days after inoculation
Molecule `C=C(C)CN(C)c1c(-c2c(F)cccc2Cl)c(Cl)nc2nc(Cl)nn12` [drawing 66] has an Efficacy in % of 84%.

Tested on: Pyricularia oryzae
Test: not given
Format: in vivo
Conditions: rice, protective, application rate 250 g/ha, evaluation 6 days after inoculation
`C[C@H](Nc1c(-c2ccccc2Cl)c(Cl)nc2nc(Cl)nn12)C(F)(F)F` showed an Efficacy in % of 100%. For `C[C@H](Nc1c(-c2c(F)cccc2Cl)c(Cl)nc2nc(Cl)nn12)C(F)(F)F` [drawing 69], the Efficacy in % was 100%.
